Measurements taken from paper PMC7450057, “Enhancing intracellular accumulation and target engagement of PROTACs with reversible covalent chemistry” (Nature Communications, 2020).
pIC50: −log10 of the molar value. Values joined by “and” are separate entries in the source; they are usually repeats but may differ in a detail not shown here. Equal entries are not always repeated. Values belong to the compound of their own block, whether it stands above or below them.

How the values were obtained:
Mino cells = assay: AlamarBlue cell viability assay, Mino; type: cell-based; settings: for Mino Cell Viability%: Figure 2f, 5 replicates
Experimental: (§1) The IC50 was calculated using GraphPad Prism software with a four-parameter dose-response curve fit.

MOLM-14 cells = assay: AlamarBlue cell viability assay, MOLM-14; settings: for MOLM-14 Cell Viability%: Figure 2f, 5 replicates; for Cell viability, MOML-14: Supplementary Figure 7, replicates
Experimental: as §1

BTK-NanoLuc fusion = molecular target: T1, BTK-NanoLuc fusion (Homo sapiens, UniProt Q06187); assay: NanoBRET BTK in-cell target engagement assay; type: cell-based; settings: Figure 3d, triplicates
T1 construct: host or cells: HEK 293T/17
T1 sequence (Q06187 whole entry, the tested form may be a part): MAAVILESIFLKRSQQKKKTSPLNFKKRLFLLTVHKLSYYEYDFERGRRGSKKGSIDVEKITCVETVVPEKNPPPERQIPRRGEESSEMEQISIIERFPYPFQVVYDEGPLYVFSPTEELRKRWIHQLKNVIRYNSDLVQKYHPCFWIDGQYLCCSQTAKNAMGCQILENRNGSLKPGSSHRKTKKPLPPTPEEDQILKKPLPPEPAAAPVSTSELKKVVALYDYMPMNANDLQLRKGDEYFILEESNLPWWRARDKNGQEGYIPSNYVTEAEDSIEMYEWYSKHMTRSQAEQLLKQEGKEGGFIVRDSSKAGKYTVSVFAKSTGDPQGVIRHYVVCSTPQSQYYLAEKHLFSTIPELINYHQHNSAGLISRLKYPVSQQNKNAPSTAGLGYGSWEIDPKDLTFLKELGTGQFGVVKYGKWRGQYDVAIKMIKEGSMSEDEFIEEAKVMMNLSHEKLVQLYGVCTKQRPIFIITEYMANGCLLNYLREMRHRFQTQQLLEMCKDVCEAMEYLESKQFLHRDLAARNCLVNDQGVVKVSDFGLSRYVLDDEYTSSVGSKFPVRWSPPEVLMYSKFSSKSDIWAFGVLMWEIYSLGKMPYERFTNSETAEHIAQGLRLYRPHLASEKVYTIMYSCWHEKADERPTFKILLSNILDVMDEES
Experimental: The target engagement assay for BTK or CRBN was from Promega (BTK kit, Cat. No. N2500; CRBN kit, Cat. No. CS1810C136) and was performed according to the manufacture’s instruction with some modifications. Briefly, HEK 293/T17 cells (ATCC) were transiently transfected with BTK-NanoLuc® fusion vector or NanoLuc®-CRBN fusion vector (Promega) in 0.125 M CaCl2 and 1x HBS. Forty-eight hours after transfection, the cells were resuspended in Opti-MEM medium (Life Technologies, Cat. No. 11058021) at the density of 2 × 10^5 cells per mL and were plated into 96-well plates (Corning, Cat. No. CLS3600). Cells were incubated with 1.0 µM (BTK) or 0.5 µM (CRBN) NanoBRET™ Tracer and serially diluted unlabeled BTK PROTAC compounds (from 10 to 0.0032 µM, 5-fold dilution) for 2 h at 37 °С with 5% CO2 in an incubator. After 2 h incubation, the 3X Nano-Glo® Substrate with NanoLuc® extracellular inhibitor were added to cells and developed for 3 min at room temperature. BRET signals were collected using a BioTek SYNERGY H1 microplate reader equipped with a 450/80-nm BP filter for donor emission and a 610-nm LP filter for acceptor emission. BRET Ratio was calculated with the equation: [(Acceptor sample/Donor sample)–(Acceptor no tracer control/Donor no tracer control)] × 1000. The IC50 of the compound against its BTK or CRBN tracer was calculated using GraphPad Prism software.

BTK = BTK (Homo sapiens, UniProt Q06187); assay: BTK degradation in MOLM-14 cells (western blot); type: cell-based; design: endogenous in cells; host or cells: MOLM-14; settings: MOLM-14 cells
BTK, sequence (Q06187 whole entry): as the sequence (Q06187 whole entry, the tested form may be a part) above

pIC50 (MOLM-14 cells; read-out: Cell viability IC50, MOLM-14 cells, 72 h, Alamar Blue): < 5.00 | NanoBRET(%) (BTK-NanoLuc fusion; 1.00E-05 M): 22.6421% and 28.6973% and 22% | NanoBRET(%) (BTK-NanoLuc fusion; 1.60E-08 M): 88.8537% and 90.4209% and 91.9881% | NanoBRET(%) (BTK-NanoLuc fusion; 2.00E-06 M): 21.3125% and 25.7571% and 22.7507% | NanoBRET(%) (BTK-NanoLuc fusion; 3.20E-09 M): 94.8868% and 96.3909% and 104.805% | NanoBRET(%) (BTK-NanoLuc fusion; 4.00E-07 M): 28.4685% and 42.1101% and 35.114% | NanoBRET(%) (BTK-NanoLuc fusion; 8.00E-08 M): 85.0919% and 75.63% and 91.5725%
Compound: Cc1c(NC(=O)c2ccc(C(C)(C)C)cc2)cccc1-c1cn(C)c(=O)c(Nc2ccc(C(=O)N3CCN(CCCCCCNC(=O)CNc4cccc5c4C(=O)N(C4CCC(=O)NC4=O)C5=O)CC3)cc2)n1 (centres unmarked) [DD-03-171, reference compound]
Mino Cell Viability% (Mino cells; 1.00E-06 M): 32.4788% and 32.2293% and 34.0942% and 35.4207% and 39.7021% | Mino Cell Viability% (Mino cells; 1.60E-09 M): 121.168% and 104.266% and 118.227% and 107.943% and 119.96% | Mino Cell Viability% (Mino cells; 2.00E-07 M): 36.6289% and 34.2124% and 35.7227% and 37.3775% and 42.3025% | Mino Cell Viability% (Mino cells; 3.20E-10 M): 132.424% and 103.701% and 122.994% and 107.72% and 141.013% | Mino Cell Viability% (Mino cells; 4.00E-08 M): 54.0832% and 46.6234% and 39.8335% and 52.888% and 75.1359% | Mino Cell Viability% (Mino cells; 5.00E-06 M): 39.9385% and 37.4432% and 38.9273% and 39.4395% and 47.3326% | Mino Cell Viability% (Mino cells; 8.00E-09 M): 56.5785% and 60.1245% and 102.834% and 110.123% and 118.502% | pIC50 (Mino cells; Mino cells, 72 h, Alamar Blue): 7.30 | MOLM-14 Cell Viability% (MOLM-14 cells; 1.00E-05 M): 97.5451% and 84.66% and 89.4149% and 67.5953% and 78.1969% | MOLM-14 Cell Viability% (MOLM-14 cells; 1.60E-08 M): 83.9791% and 92.5848% and 65.981% and 62.9872% and 76.0308% | MOLM-14 Cell Viability% (MOLM-14 cells; 2.00E-06 M): 93.025% and 80.0636% and 90.2426% and 67.3429% and 78.4493% | MOLM-14 Cell Viability% (MOLM-14 cells; 3.20E-09 M): 93.7588% and 71.6575% and 86.4445% and 88.7633% and 72.8844% | MOLM-14 Cell Viability% (MOLM-14 cells; 4.00E-07 M): 97.2809% and 75.3792% and 70.6831% and 69.0687% and 74.7981% | MOLM-14 Cell Viability% (MOLM-14 cells; 6.40E-10 M): 106.497% and 80.5215% and 63.4862% and 80.6741% and 69.8495% | MOLM-14 Cell Viability% (MOLM-14 cells; 8.00E-08 M): 102.353% and 96.782% and 97.1048% and 76.9172% and 82.8931%

Degradation at 200 nM (percentage of BTK degradation) (BTK; 200 nM, 24 h incubation): 30%
Compound: CN(CCCNC(=O)COc1cccc2c1C(=O)N(C1CCC(=O)NC1=O)C2=O)C(C)(C)C=C(C#N)C(=O)N1CCC[C@@H](n2nc(-c3ccc(Oc4ccccc4)cc3)c3c(N)ncnc32)C1 (some centres unmarked) [RC-9]
Cell viability, MOML-14 (MOLM-14 cells; drug concentration 1.00E-05 M): -0.2322 and -0.06633 and -0.1327 and -0.8823 and -0.4179 | Cell viability, MOML-14 (MOLM-14 cells; drug concentration 1.60E-08 M): 85.6517 and 91.2637 and 79.403 and 91.5091 and 93.4859 | Cell viability, MOML-14 (MOLM-14 cells; drug concentration 2.00E-06 M): 9.041 and 7.098 and 11.4959 and 8.756 and 8.279 | Cell viability, MOML-14 (MOLM-14 cells; drug concentration 3.20E-09 M): 93.4859 and 94.8192 and 76.9154 and 100.657 and 77.1542 | Cell viability, MOML-14 (MOLM-14 cells; drug concentration 4.00E-07 M): 42.6932 and 44.9353 and 60.7695 and 44.0464 and 46.4279 | Cell viability, MOML-14 (MOLM-14 cells; drug concentration 6.40E-10 M): 113.612 and 82.5937 and 85.9834 and 109.612 and 104.358 | Cell viability, MOML-14 (MOLM-14 cells; drug concentration 8.00E-08 M): 79.6219 and 80.8756 and 76.0199 and 82.7728 and 91.7612

BTK degradation (in words) (BTK; indicated doses, 24 h): cannot induce any BTK degradation
Compound: CN(CCOCCNC(=O)CNc1ccc2c(c1)C(=O)N(C1CCC(=O)NC1=O)C2=O)C(C)(C)C=C(C#N)C(=O)N1CCC[C@@H](n2nc(-c3ccc(Oc4ccccc4)cc3)c3c(N)ncnc32)C1 (some centres unmarked) [RC-10]
Cell viability, MOML-14 (MOLM-14 cells; drug concentration 1.00E-05 M): 6.648 and 2.814 and 5.855 and 1.001 and 2.266 | Cell viability, MOML-14 (MOLM-14 cells; drug concentration 1.60E-08 M): 84.9481 and 73.56 and 76.0529 and 61.3598 and 63.4939 | Cell viability, MOML-14 (MOLM-14 cells; drug concentration 2.00E-06 M): 15.1841 and 8.971 and 14.3343 and 7.989 and 11.1237 | Cell viability, MOML-14 (MOLM-14 cells; drug concentration 3.20E-09 M): 88.1209 and 77.847 and 69.5373 and 71.6336 and 68.102 | Cell viability, MOML-14 (MOLM-14 cells; drug concentration 4.00E-07 M): 52.6534 and 38.4514 and 40.831 and 37.0727 and 36.6572 | Cell viability, MOML-14 (MOLM-14 cells; drug concentration 6.40E-10 M): 87.0746 and 98.5269 and 68.2342 and 85.7413 and 74.9197 | Cell viability, MOML-14 (MOLM-14 cells; drug concentration 8.00E-08 M): 70.5949 and 66.9688 and 60.3777 and 66.9311 and 50.1039
